Test results published in ChEMBL document CHEMBL4808193, “[11]-Chaetoglobosins from Pseudeurotium bakeri Induce G2/M Cell Cycle Arrest and Apoptosis in Human Cancer Cells” (J Nat Prod, 2021).

Assays:
A-427 [1] = assay: Induction of apoptosis in human A-427 cells assessed as early apoptotic cells at 7.5 uM measured after 24 hrs by Annexin V-FITC/propidium iodide staining based flow cytometric analysis (reference value: 4.75%); format: functional
A-427 [2] = assay: Induction of apoptosis in human A-427 cells assessed as late apoptotic cells at 5 uM measured after 24 hrs by Annexin V-FITC/propidium iodide staining based flow cytometric analysis (reference value: 3.59%); format: functional
A-427 [3] = assay: Induction of apoptosis in human A-427 cells assessed as early apoptotic cells at 5 uM measured after 24 hrs by Annexin V-FITC/propidium iodide staining based flow cytometric analysis (reference value: 4.75%); format: functional
MCF7 [4] = assay: Induction of apoptosis in human MCF7 cells assessed as early apoptotic cells at 5 uM measured after 24 hrs by Annexin V-FITC/propidium iodide staining based flow cytometric analysis (reference value: 3.07%); format: functional
MCF7 [5] = assay: Induction of apoptosis in human MCF7 cells assessed as early apoptotic cells at 7.5 uM measured after 24 hrs by Annexin V-FITC/propidium iodide staining based flow cytometric analysis (reference value: 3.07%); format: functional
MCF7 [6] = assay: Cell cycle arrest in human MCF7 cells assessed as accumulation at G2/M phase at 7.5 uM measured after 24 hrs by PI staining based flow cytometry (reference value: 18.9%); format: functional
A-427 [7] = assay: Cell cycle arrest in human A-427 cells assessed as accumulation at S phase at 6 uM measured after 24 hrs by PI staining based flow cytometry (reference value: 25.84%); format: functional
HepG2 = assay: Cytotoxicity against human HepG2 cells assessed as reduction in cell viability by MTT assay; format: functional, cell-based
MCF7 [8] = assay: Cell cycle arrest in human MCF7 cells assessed as accumulation at S phase at 7.5 uM measured after 24 hrs by PI staining based flow cytometry (reference value: 9.43%); format: functional
A-427 [9] = assay: Induction of apoptosis in human A-427 cells assessed as late apoptotic cells at 7.5 uM measured after 24 hrs by Annexin V-FITC/propidium iodide staining based flow cytometric analysis (reference value: 3.59%); format: functional
MCF7 [10] = assay: Cytotoxicity against human MCF7 cells assessed as reduction in cell viability by MTT assay; format: functional, cell-based
MCF7 [11] = assay: Cell cycle arrest in human MCF7 cells assessed as accumulation at G0/G1 phase at 7.5 uM measured after 24 hrs by PI staining based flow cytometry (reference value: 61.67%); format: functional
MCF7 [12] = assay: Induction of apoptosis in human MCF7 cells assessed as late apoptotic cells at 10 uM measured after 24 hrs by Annexin V-FITC/propidium iodide staining based flow cytometric analysis (reference value: 1.19%); format: functional
A-427 [13] = assay: Cell cycle arrest in human A-427 cells assessed as accumulation at G0/G1 phase at 2 uM measured after 24 hrs by PI staining based flow cytometry (reference value: 60.57%); format: functional
HeLa = assay: Cytotoxicity against human HeLa cells assessed as reduction in cell viability by MTT assay; format: functional, cell-based
A-427 [14] = assay: Cell cycle arrest in human A-427 cells assessed as accumulation at G2/M phase at 4 uM measured after 24 hrs by PI staining based flow cytometry (reference value: 13.59%); format: functional
MCF7 [15] = assay: Cell cycle arrest in human MCF7 cells assessed as accumulation at G2/M phase at 5 uM measured after 24 hrs by PI staining based flow cytometry (reference value: 18.9%); format: functional
MCF7 [16] = assay: Cell cycle arrest in human MCF7 cells assessed as accumulation at G0/G1 phase at 10 uM measured after 24 hrs by PI staining based flow cytometry (reference value: 61.67%); format: functional
HT-29 = assay: Cytotoxicity against human HT-29 cells assessed as reduction in cell viability by MTT assay; format: functional, cell-based
MCF7 [17] = assay: Induction of apoptosis in human MCF7 cells assessed as early apoptotic cells at 10 uM measured after 24 hrs by Annexin V-FITC/propidium iodide staining based flow cytometric analysis (reference value: 3.07%); format: functional
MCF7 [18] = assay: Induction of apoptosis in human MCF7 cells assessed as late apoptotic cells at 7.5 uM measured after 24 hrs by Annexin V-FITC/propidium iodide staining based flow cytometric analysis (reference value: 1.19%); format: functional
A-427 [19] = assay: Cell cycle arrest in human A-427 cells assessed as accumulation at G0/G1 phase at 6 uM measured after 24 hrs by PI staining based flow cytometry (reference value: 60.57%); format: functional
HCT-116 = assay: Cytotoxicity against human HCT-116 cells assessed as reduction in cell viability by MTT assay; format: functional, cell-based
A-427 [20] = assay: Cytotoxicity against human A-427 cells assessed as reduction in cell viability by MTT assay; format: functional, cell-based
A-427 [21] = assay: Cell cycle arrest in human A-427 cells assessed as accumulation at S phase at 2 uM measured after 24 hrs by PI staining based flow cytometry (reference value: 25.84%); format: functional
A-427 [22] = assay: Cell cycle arrest in human A-427 cells assessed as accumulation at S phase at 4 uM measured after 24 hrs by PI staining based flow cytometry (reference value: 25.84%); format: functional
MCF7 [23] = assay: Cell cycle arrest in human MCF7 cells assessed as accumulation at G2/M phase at 10 uM measured after 24 hrs by PI staining based flow cytometry (reference value: 18.9%); format: functional
MCF7 [24] = assay: Cell cycle arrest in human MCF7 cells assessed as accumulation at S phase at 5 uM measured after 24 hrs by PI staining based flow cytometry (reference value: 9.43%); format: functional
MCF7 [25] = assay: Induction of apoptosis in human MCF7 cells assessed as late apoptotic cells at 5 uM measured after 24 hrs by Annexin V-FITC/propidium iodide staining based flow cytometric analysis (reference value: 1.19%); format: functional
MCF7 [26] = assay: Cell cycle arrest in human MCF7 cells assessed as accumulation at S phase at 10 uM measured after 24 hrs by PI staining based flow cytometry (reference value: 9.43%); format: functional
A-427 [27] = assay: Cell cycle arrest in human A-427 cells assessed as accumulation at G2/M phase at 6 uM measured after 24 hrs by PI staining based flow cytometry (reference value: 13.59%); format: functional
A-427 [28] = assay: Cell cycle arrest in human A-427 cells assessed as accumulation at G0/G1 phase at 4 uM measured after 24 hrs by PI staining based flow cytometry (reference value: 60.57%); format: functional
A-427 [29] = assay: Induction of apoptosis in human A-427 cells assessed as late apoptotic cells at 2.5 uM measured after 24 hrs by Annexin V-FITC/propidium iodide staining based flow cytometric analysis (reference value: 3.59%); format: functional
L02 = assay: Cytotoxicity against human L02 cells assessed as reduction in cell viability by MTT assay; format: cell-based
MCF7 [30] = assay: Cell cycle arrest in human MCF7 cells assessed as accumulation at G0/G1 phase at 5 uM measured after 24 hrs by PI staining based flow cytometry (reference value: 61.67%); format: functional
A549 = assay: Cytotoxicity against human A549 cells assessed as reduction in cell viability by MTT assay; format: functional, cell-based
A-427 [31] = assay: Induction of apoptosis in human A-427 cells assessed as early apoptotic cells at 2.5 uM measured after 24 hrs by Annexin V-FITC/propidium iodide staining based flow cytometric analysis (reference value: 4.75%); format: functional
A-427 [32] = assay: Cell cycle arrest in human A-427 cells assessed as accumulation at G2/M phase at 2 uM measured after 24 hrs by PI staining based flow cytometry (reference value: 13.59%); format: functional

CC1=C[C@@H]2/C=C/C[C@H](C)CC(=O)/C=C\C(=O)[C@]23C(=O)N[C@@H](Cc2c[nH]c4ccccc24)[C@@H]3[C@@H]1C
Activity (A-427 [1]): 27.61%
Activity (A-427 [2]): 23.7%
Activity (A-427 [3]): 23.77%
Activity (MCF7 [4]): 18.98%
Activity (MCF7 [5]): 25.77%
Activity (MCF7 [6]): 51.12%
Activity (A-427 [7]): 22.56%
IC50 (HepG2): 9.6 µM
Activity (MCF7 [8]): 13.87%
Activity (A-427 [9]): 32.81%
IC50 (MCF7 [10]): 7.2 µM
Activity (MCF7 [11]): 35%
Activity (MCF7 [12]): 9.17%
Activity (A-427 [13]): 44.94%
IC50 (HeLa): 8.4 µM
Activity (A-427 [14]): 44.26%
Activity (MCF7 [15]): 48.62%
Activity (MCF7 [16]): 26.96%
IC50 (HT-29): 8.2 µM
Activity (MCF7 [17]): 28.62%
Activity (MCF7 [18]): 7.41%
Activity (A-427 [19]): 27.41%
IC50 (HCT-116): 10.6 µM
IC50 (A-427 [20]): 6.6 µM
Activity (A-427 [21]): 20.39%
Activity (A-427 [22]): 21.18%
Activity (MCF7 [23]): 60.73%
Activity (MCF7 [24]): 13.57%
Activity (MCF7 [25]): 7.3%
Activity (MCF7 [26]): 12.31%
Activity (A-427 [27]): 50.04%
Activity (A-427 [28]): 34.56%
Activity (A-427 [29]): 17.54%
IC50 (L02): 35.5 µM
Activity (MCF7 [30]): 37.81%
IC50 (A549): 7.9 µM
Activity (A-427 [31]): 12.11%
Activity (A-427 [32]): 34.67%
